Legend:
[1] = system: HT-29; test: Cytotoxicity against human HT-29 cells assessed as reduction in cell viability measured after 48 hrs by AlamarBlue assay; format: functional, cell-based; conditions: HT-29, 48 h
[2] = Cytotoxicity against human THLE-3 cells assessed as reduction in cell viability measured after 48 hrs by AlamarBlue assay; format: cell-based; conditions: for CC50: thle-3, 48 h; for CC50 at 48 h: THLE-3 cells
[3] = target: T1, E. coli GroEL/ES (Escherichia coli, UniProt P0A6F5); test: Inhibition of Escherichia coli GroEL/ES-mediated refolding of the denatured malate dehydrogenase; format: protein-complex assay
T1 sequence (P0A6F5 whole entry, looked up): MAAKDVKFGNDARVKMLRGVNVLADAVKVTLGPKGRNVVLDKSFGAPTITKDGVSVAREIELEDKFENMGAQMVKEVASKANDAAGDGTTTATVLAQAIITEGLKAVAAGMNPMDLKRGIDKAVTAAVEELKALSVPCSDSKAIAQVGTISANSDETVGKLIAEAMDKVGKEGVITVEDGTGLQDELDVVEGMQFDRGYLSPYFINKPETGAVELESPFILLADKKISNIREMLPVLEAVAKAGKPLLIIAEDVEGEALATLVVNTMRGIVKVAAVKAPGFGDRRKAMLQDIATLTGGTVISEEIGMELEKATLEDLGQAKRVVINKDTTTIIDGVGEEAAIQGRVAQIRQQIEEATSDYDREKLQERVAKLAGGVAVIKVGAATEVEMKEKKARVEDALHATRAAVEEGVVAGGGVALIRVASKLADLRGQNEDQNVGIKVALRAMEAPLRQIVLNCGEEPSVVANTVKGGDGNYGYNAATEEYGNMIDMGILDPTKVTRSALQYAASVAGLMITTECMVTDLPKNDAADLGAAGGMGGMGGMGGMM

[4] = system: HEK293; test: (§1) Cytotoxicity against human HEK293 cells assessed as reduction in cell viability measured after 48 hrs by AlamarBlue assay; format: cell-based; conditions: hek293, 48 h
[5] = system: FHC; test: Cytotoxicity against human FHC cells assessed as reduction in cell viability measured after 48 hrs by AlamarBlue assay; format: cell-based
[6] = system: DLD-1; test: Cytotoxicity against human DLD-1 cells assessed as reduction in cell viability measured after 48 hrs by AlamarBlue assay; format: functional, cell-based; conditions: DLD-1, 48 h
[7] = system: HCT-116; test: Cytotoxicity against human HCT-116 cells assessed as reduction in cell viability measured after 48 hrs by AlamarBlue assay; format: functional, cell-based; conditions: HCT-116, 48 h
[8] = target: HSP60/HSP10 (Homo sapiens, UniProt P10809); test: Inhibition of human mitochondrial HSP60/10-mediated refolding of the denatured malate dehydrogenase; format: mitochondria, Mitochondria
Sequence of HSP60/HSP10 (P10809 whole entry): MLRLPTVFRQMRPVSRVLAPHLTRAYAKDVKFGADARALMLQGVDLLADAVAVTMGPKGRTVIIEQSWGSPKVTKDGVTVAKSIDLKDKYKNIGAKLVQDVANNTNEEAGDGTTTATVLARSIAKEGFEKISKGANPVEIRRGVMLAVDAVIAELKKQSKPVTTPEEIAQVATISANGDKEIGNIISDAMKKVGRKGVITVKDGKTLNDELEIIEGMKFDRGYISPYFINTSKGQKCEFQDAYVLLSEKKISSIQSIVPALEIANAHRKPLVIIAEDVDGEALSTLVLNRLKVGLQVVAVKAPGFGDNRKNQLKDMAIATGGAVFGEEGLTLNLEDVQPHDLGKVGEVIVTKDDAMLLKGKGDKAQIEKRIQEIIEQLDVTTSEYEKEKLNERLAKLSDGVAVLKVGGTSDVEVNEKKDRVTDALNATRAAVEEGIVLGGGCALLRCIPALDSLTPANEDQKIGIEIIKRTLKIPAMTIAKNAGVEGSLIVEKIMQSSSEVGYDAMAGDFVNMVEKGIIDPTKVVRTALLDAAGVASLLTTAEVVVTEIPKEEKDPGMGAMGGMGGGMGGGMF
Sequence of HSP60/HSP10 (P61604 whole entry, further chain): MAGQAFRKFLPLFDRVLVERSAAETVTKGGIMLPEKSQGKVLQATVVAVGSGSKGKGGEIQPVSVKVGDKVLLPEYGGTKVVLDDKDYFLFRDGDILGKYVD

[9] = target: T1, E. coli GroEL/ES; test: Inhibition of Escherichia coli GroEL/ES-mediated refolding of the denatured rhodanese; format: protein-complex assay
[10] = Cytotoxicity against human FHs74Int cells assessed as reduction in cell viability measured after 48 hrs by AlamarBlue assay; format: cell-based
[11] = target: T2, Thiosulfate sulfurtransferase (Homo sapiens, UniProt Q16762); test: Inhibition of refolded Rhodanese (unknown origin)-mediated conversion of cyanide to thiocyanate treated with compound after refolding of the denatured enzyme
T2 sequence (Q16762 whole entry): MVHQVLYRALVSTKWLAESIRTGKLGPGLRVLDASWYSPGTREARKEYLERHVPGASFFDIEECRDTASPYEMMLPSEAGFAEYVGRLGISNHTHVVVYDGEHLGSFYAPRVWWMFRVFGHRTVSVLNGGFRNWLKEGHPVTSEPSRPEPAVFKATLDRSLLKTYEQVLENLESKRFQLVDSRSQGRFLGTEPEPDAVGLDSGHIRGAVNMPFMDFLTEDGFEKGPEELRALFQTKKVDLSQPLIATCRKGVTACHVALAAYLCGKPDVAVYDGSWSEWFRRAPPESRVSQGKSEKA

[12] = Inhibition of refolded MDH (unknown origin)-mediated oxidation of NADPH in presence of mesoxalic acid treated with compound after refolding of the denatured enzyme; set-up: species or system Homo sapiens
[13] = as §1; format: cell-based; conditions: HEK293 cells

COc1ccc(S(=O)(=O)Nc2ccc3oc(-c4ccc(NC(=O)C5CCN(C(C)=O)CC5)cc4)nc3c2)cc1
EC50 [1]: 16 µM
CC50 [2]: 31 µM
IC50 [3]: 38 µM
CC50 [4]: 34 µM
CC50 [5]: > 100 µM
EC50 [6]: 15 µM
EC50 [7]: 15 µM
IC50 [8]: 24 µM
IC50 [9]: 61 µM
CC50 [10]: 84 µM
IC50 [11]: > 100 µM
IC50 [12]: > 62.5 µM

Nc1ccc(S(=O)(=O)Nc2ccc(-c3nc4cc(NS(=O)(=O)c5ccc(N)cc5)ccc4o3)cc2)cc1
EC50 [1]: 24 µM
CC50 at 48 h [2]: 39 µM
CC50 at 48 h [13]: 63 µM
CC50 [5]: 65 µM
EC50 [6]: 47 µM
EC50 [7]: 17 µM
IC50 [8]: 44 µM
IC50 [9]: 3.1 µM
CC50 [10]: 53 µM
IC50 [11]: > 100 µM
IC50 [12]: > 62.5 µM

O=C(Nc1ccc(Sc2nc3ccccc3s2)cc1)c1cc(Br)cc(Br)c1O
EC50 [1]: 21 µM
CC50 at 48 h [2]: 19 µM
IC50 [3]: 3.2 µM
CC50 at 48 h [13]: 69 µM
CC50 [5]: 74 µM
EC50 [6]: 20 µM
EC50 [7]: 19 µM
IC50 [8]: 5.9 µM
IC50 [9]: 2.2 µM
CC50 [10]: 75 µM
IC50 [12]: 6.6 µM

COc1ccc(S(=O)(=O)Nc2ccc(-c3nc4cc(NS(=O)(=O)c5ccc(OC)cc5)ccc4o3)cc2)cc1
EC50 [1]: 40 µM
CC50 at 48 h [2]: 60 µM
IC50 [3]: 30 µM
CC50 at 48 h [13]: 48 µM
CC50 [5]: 57 µM
EC50 [6]: 28 µM
EC50 [7]: 12 µM
IC50 [9]: 56 µM
CC50 [10]: 40 µM
IC50 [11]: > 100 µM
IC50 [12]: > 62.5 µM

O=S(=O)(Nc1ccc(-c2nc3cc(NS(=O)(=O)c4ccc(Cl)s4)ccc3o2)cc1)c1ccc(Cl)s1
EC50 [1]: 33 µM
CC50 at 48 h [2]: 48 µM
IC50 [3]: 2.8 µM
CC50 at 48 h [13]: 41 µM
CC50 [5]: 43 µM
EC50 [6]: 33 µM
EC50 [7]: 15 µM
IC50 [8]: 6.5 µM
CC50 [10]: 65 µM
IC50 [12]: 57 µM

O=S(=O)(Nc1ccc(-c2nc3cc(NS(=O)(=O)c4ccccc4)ccc3o2)cc1)c1ccccc1
EC50 [1]: 16 µM
CC50 at 48 h [2]: 23 µM
CC50 at 48 h [13]: 25 µM
CC50 [5]: 30 µM
EC50 [6]: 16 µM
EC50 [7]: 13 µM
IC50 [8]: 86 µM
IC50 [9]: 18 µM
CC50 [10]: > 100 µM
IC50 [11]: > 100 µM
IC50 [12]: > 62.5 µM

COc1c(Br)cccc1C(=O)Nc1ccc(Sc2nc3ccccc3s2)cc1
EC50 [1]: 30 µM
CC50 at 48 h [2]: > 100 µM
CC50 at 48 h [13]: > 100 µM
EC50 [6]: 40 µM
EC50 [7]: 31 µM
IC50 [12]: > 62.5 µM

COc1ccc(S(=O)(=O)Nc2ccc3oc(-c4ccc(NS(=O)(=O)c5cc(F)ccc5OC)cc4)nc3c2)cc1
EC50 [1]: 15 µM
CC50 [2]: 25 µM
IC50 [3]: 18 µM
CC50 [4]: 24 µM
CC50 [5]: > 100 µM
EC50 [6]: 18 µM
EC50 [7]: 15 µM
IC50 [8]: > 100 µM
IC50 [9]: 30 µM
CC50 [10]: > 100 µM
IC50 [11]: > 100 µM
IC50 [12]: > 62.5 µM

O=S(=O)(Nc1ccc(-c2nc3cc(NS(=O)(=O)c4ccccc4Cl)ccc3o2)cc1)c1ccccc1Cl
EC50 [1]: 15 µM
CC50 at 48 h [2]: 25 µM
IC50 [3]: 40 µM
CC50 at 48 h [13]: 46 µM
CC50 [5]: 45 µM
EC50 [6]: 17 µM
EC50 [7]: 12 µM
IC50 [9]: 43 µM
CC50 [10]: 38 µM
IC50 [11]: > 100 µM
IC50 [12]: > 62.5 µM

O=S(=O)(Nc1ccc(-c2nc3cc(NS(=O)(=O)c4ccc(Cl)s4)ccc3o2)cc1)c1ccc(Cl)c(C(F)(F)F)c1
EC50 [1]: 21 µM
CC50 at 48 h [2]: 21 µM
IC50 [3]: 2.8 µM
CC50 at 48 h [13]: 34 µM
CC50 [5]: 63 µM
EC50 [7]: 17 µM
IC50 [8]: 6.7 µM
IC50 [9]: 8.3 µM
CC50 [10]: 56 µM
IC50 [12]: > 62.5 µM
